Where two headings read alike, the source gives them in different places. Numbered stars: 1 amine (or outer) side, 2 acyl side, 3 side chain; on linkers, the order of the positions; unused ones are H or OH. Square brackets hold non-standard residues; d marks the D form. Side chains are listed from the residue outwards. * marks the point of attachment. C20 diacid = O=C(O)CCCCCCCCCCCCCCCCCCC(=O)*; C18 diacid = O=C(O)CCCCCCCCCCCCCCCCC(=O)*; γGlu = O=C(O)[C@H](CCC(=O)[*:2])N[*:1]; AEEA = NCCOCCOCC(=O)O; Aib = CC(C)(N)C(=O)O
Tests used:
Type in all cases: cell-based
[1] = biological target: T1, human amylin receptor (hAMYR3) (Homo sapiens, UniProt O60896+P30988); test: Amylin receptor assay, method A (CRE-luciferase reporter, BHK cells)
T1 construct: host or cells: BHK cells (Hollex-1 line expressing hCTR(a) and CRE-Luc), further transfected with human RAMP3
Experimental: (§1) To assess how the activation of the receptors is potentially influenced by the presence of human serum albumin (HSA), the in vitro assays were performed in the absence of HSA and presence of 1% (w/v) HSA.
It is thus possible to measure hAMYR3 activity using a CRE-luciferase reporter gene introduced into Baby Hamster Kidney (BHK) cells co-expressing the hAMYR3.
The cell line was further transfected with human receptor modifying protein 3 (RAMP3) using standard methods.
After centrifugation, the cell pellet was resuspended and diluted to approximately 2.5-4.0×10^6 (2.5E+6 to 4.0E+6) cells/mL in Recovery™ Cell Culture Freezing Medium (Gibco, 12648-010). Cells were aliquoted and stored at −180° C. until use.
The assay buffer consisted of DMEM without phenol red (Gibco, 11880-028) supplemented with 1× GlutaMAX (Gibco, 35050-038), 10 mM HEPES (Gibco, 15630-056) and 1% (w/v) ovalbumin (Sigma, A5503) either with or without 0.1% (v/v) Pluronic F-68 (Gibco, 24040-032) and either with or without HSA (Sigma, A9511).
The plate was incubated over night at 37° C. in 5% CO2. […] Luminescence was detected on a luminescence plate reader e.g., a Synergy 2 (BioTek).

[2] = biological target: T2, human GLP-1 receptor (hGLP-1R) (Homo sapiens, UniProt P43220); test: GLP-1 receptor assay, method A (CRE-luciferase reporter, BHK cells)
T2 construct: expressed in transfected cells
Experimental: as §1
Cells at approximately 80-90% confluence were washed once in PBS (Gibco 14190-094) and loosened from the cell flasks with Versene (Gibco, 15040-033). […] Cells were aliquoted and stored at −180° C. until use.
(§2) The assay buffer consisted of DMEM without phenol red (Gibco, 11880-028) supplemented with 1× GlutaMAX (Gibco, 35050-038), 10 mM HEPES (Gibco, 15630-056), 1% (w/v) ovalbumin (Sigma, A5503) and 0.1% (v/v) Pluronic F-68 (Gibco, 24040-032) either with HSA or without HSA (Sigma, A9511).
Frozen stocks of hGLP-1R BHK CRE-Luc cells were thawed in a 37° C. water bath, washed once in PBS (Gibco 14190-094) and diluted to 1.5×10^6 (1.5E+6) cells/mL in assay buffer with or without 2% (w/v) HSA (Sigma, A9511). […] The assay plates were incubated for 3 hours at 37° C. in 5% CO2, left at room temperature for 5 minutes after which 100 μL steadylite Plus™ (PerkinElmer/Revvity, 6066759) was added to each well. Plates were sealed and incubated at room temperature with gentle shaking for 30 minutes while protected from light. Luminescence was detected on a luminescence plate reader e.g., a Synergy 2 (BioTek).

[3] = biological target: T3, human GIP receptor (hGIPR) (Homo sapiens, UniProt P48546); test: GIP receptor assay, method A (CRE-luciferase reporter, BHK cells)
T3 construct: expressed in transfected cells
T3 sequence (P48546 22-466): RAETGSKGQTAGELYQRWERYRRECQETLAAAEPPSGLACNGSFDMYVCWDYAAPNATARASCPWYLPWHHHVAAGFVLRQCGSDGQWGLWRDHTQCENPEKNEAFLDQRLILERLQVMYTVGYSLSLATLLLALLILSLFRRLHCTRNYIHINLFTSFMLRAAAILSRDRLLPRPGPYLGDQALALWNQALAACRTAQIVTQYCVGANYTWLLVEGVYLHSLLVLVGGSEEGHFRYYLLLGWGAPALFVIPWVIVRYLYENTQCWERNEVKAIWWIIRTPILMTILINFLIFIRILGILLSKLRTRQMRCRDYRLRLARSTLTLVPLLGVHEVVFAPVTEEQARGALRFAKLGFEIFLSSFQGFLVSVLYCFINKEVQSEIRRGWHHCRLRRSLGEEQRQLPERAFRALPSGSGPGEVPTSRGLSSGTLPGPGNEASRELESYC
Experimental: To assess how the activation of the receptors is potentially influenced by the presence of human serum albumin (HSA), the in vitro assays were performed in the absence of HSA and presence of 1% (w/v) HSA. Unless stated otherwise the reference to the “GIP receptor assay as described in Example 4” throughout the specification shall refer to the described herein assay procedure method A (hGIPR assay) in the absence of HSA.
Activation of the human GIP receptor leads to increased intra-cellular concentrations of cyclic AMP (cAMP) and the consequent transcription activation from promoters containing multiple copies of the cAMP response element (CRE). It is thus possible to measure GIP receptor activity using a CRE-luciferase reporter gene introduced into Baby Hamster Kidney (BHK) cells co-expressing the human GIP receptor.
Cells at about 80-90% confluency were washed once with PBS (Gibco 14190-094) and detached from the cell flasks with Versene (Gibco, 15040-066). After centrifugation, the cells were counted, resuspended and diluted to approximately 1.5-3.0×10^6 (1.5E+6 to 3.0E+6) cells/mL in Recovery Cell Culture Freezing Medium (Gibco, 12648-010) and stored at −180° C. in suitable aliquots until use.
as §2
On the day before the assay hGIPR BHK Cre-Luc cells were thawed and plated out in 96 well Culture Plates (PerkinElmer/Revvity, 6005680) at 5.0×10^3 (5.0E+3) cells/well in growth medium as described above. The plates were then incubated for 21-23 hours at 37° C. with 5% CO2. On the day of the assay GLP-1-/GIP-/amylin-receptor tri-agonists or reference compounds were diluted in assay buffer using a 7-point, 10-fold titration plus a blank (absence of compound). Each compound was diluted and tested in duplicates in each experiment. In the plates containing the cells the growth medium was removed, and cells were washed twice with 100 μL PBS (Gibco 14190-094). 50 μL of the test compound dilutions were added to the plates containing cells preceded by 50 μL assay buffer with or without 2% (w/v) HSA (Sigma, A9511). The cell plates were incubated for 3 hours in a 5% CO2 incubator at 37° C. The plates were then transferred to room temperature followed by addition of 100 μL steadylite Plus™ (PerkinElmer/Revvity, 6066759). The plates were sealed and shaken for 30 minutes at room temperature while protected from light. Finally, luminescence (as an indicator of receptor activation) was measured on a Mithras reader (Berthold Technologies, DE). The EC50-values [pM] were calculated by non-linear curve fitting applying a four-parameter logistic model (Hill slope=“shared value for all datasets”) using GraphPad Prism (GraphPad Software, Boston, MA, USA).

[4] = method A, absence of HSA, read-out: hAMYR3 Potency, no HSA, EC50
[5] = method A, absence of HSA, read-out: hGLP-1R Potency, no HSA, EC50
[6] = method A, absence of HSA, read-out: hGIPR Potency, no HSA, EC50
[7] = hAMYR3 Potency, 1% HSA, EC50, method A, in the presence of 1% HSA
[8] = hGLP-1R Potency, 1% HSA, EC50, method A, in the presence of 1% HSA
[9] = hGIPR Potency, 1% HSA, EC50, method A, in the presence of 1% HSA
[10] = hAMYR3 Potency, no HSA, EC50, method A, absence of HSA
[11] = hGLP-1R Potency, no HSA, EC50, method A, absence of HSA
[12] = hGIPR Potency, no HSA, EC50, method A, absence of HSA

T1 sequence (P30988 25-474): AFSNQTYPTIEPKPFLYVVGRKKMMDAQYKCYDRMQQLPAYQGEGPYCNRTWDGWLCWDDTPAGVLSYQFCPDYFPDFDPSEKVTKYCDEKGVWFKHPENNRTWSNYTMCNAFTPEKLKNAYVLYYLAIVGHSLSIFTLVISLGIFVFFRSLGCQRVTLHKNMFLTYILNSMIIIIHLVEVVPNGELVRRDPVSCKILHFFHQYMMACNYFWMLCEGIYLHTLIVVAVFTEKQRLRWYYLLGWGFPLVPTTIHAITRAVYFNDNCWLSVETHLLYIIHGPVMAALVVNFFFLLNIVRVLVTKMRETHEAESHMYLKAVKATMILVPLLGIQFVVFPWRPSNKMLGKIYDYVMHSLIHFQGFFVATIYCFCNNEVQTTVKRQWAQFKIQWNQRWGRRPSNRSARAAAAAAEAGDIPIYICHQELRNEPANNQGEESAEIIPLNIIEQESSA
T1 sequence (O60896 24-148): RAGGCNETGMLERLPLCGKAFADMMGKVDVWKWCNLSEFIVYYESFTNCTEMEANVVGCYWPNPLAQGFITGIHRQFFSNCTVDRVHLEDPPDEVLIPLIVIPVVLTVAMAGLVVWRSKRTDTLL
T2 sequence (P43220 24-463): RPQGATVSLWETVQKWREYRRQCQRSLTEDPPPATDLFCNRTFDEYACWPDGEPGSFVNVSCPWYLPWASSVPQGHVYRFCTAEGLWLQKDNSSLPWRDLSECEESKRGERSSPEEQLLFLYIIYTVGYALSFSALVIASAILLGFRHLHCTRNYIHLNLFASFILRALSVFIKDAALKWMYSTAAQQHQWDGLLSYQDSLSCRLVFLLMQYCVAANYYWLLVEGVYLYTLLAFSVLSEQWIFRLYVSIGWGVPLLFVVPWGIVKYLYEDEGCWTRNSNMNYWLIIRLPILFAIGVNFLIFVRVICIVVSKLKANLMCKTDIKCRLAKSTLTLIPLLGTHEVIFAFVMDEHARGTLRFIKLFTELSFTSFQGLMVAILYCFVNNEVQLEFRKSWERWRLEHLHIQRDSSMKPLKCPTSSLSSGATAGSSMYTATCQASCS

## Y[Aib]EGTFTSDYSILLEEQAAREFIEWLLAGGPSK([AEEA-AEEA-γGlu-C18 diacid])GEASELSTAALGRLSAELHYLATLPRTETGSGSP-NH2 [Compound 29]
[1]; [4]
  EC50: 3.09 pM
[2]; [5]
  EC50: 0.0271 nM
[3]; [6]
  EC50: 2.62 pM

## H[Aib]HGTFTSDYSILLEEQAAREFIEWLLAGGPSRGAPPPSGGGEASHLSTQTQGRLSAELHK([AEEA-AEEA-γGlu-C18 diacid])LATLPRTETGSGSP-NH2 [Compound 71]
[1]; [7]
  EC50: 274 pM
[1]; [4]
  EC50: 8.66 pM
[2]; [8]
  EC50: 0.0184 nM
[2]; [5]
  EC50: 0.00334 nM
[3]; [9]
  EC50: 9.28 pM
[3]; [6]
  EC50: 2.77 pM

## H[Aib]HGTFTSDYSILLEEQAAREFIEWLLAGGPSK([AEEA-AEEA-γGlu-C18 diacid])GEASQLSTAALGRLSAELHRLADLPRTETGSGSP-NH2 [Compound 43]
[1]; [7]
  EC50: 56.5 pM
[1]; [10]
  EC50: 3.13 pM
[2]; [8]
  EC50: 0.0415 nM
[2]; [11]
  EC50: 0.00431 nM
[3]; [9]
  EC50: 186 pM
[3]; [12]
  EC50: 4.38 pM

## Y[Aib]EGTFTSDYSILLEEQAAREFIEWLLAGGPSGGEASHLSTAQTQRLSAELHK([AEEA-AEEA-γGlu-C18 diacid])LATLPRTETGSGSP-NH2 [Compound 74]
[1]; [7]
  EC50: 134 pM
[1]; [4]
  EC50: 2.73 pM
[2]; [8]
  EC50: 0.141 nM
[2]; [5]
  EC50: 0.0298 nM
[3]; [9]
  EC50: 18.7 pM
[3]; [6]
  EC50: 2.51 pM

## Y[Aib]EGTFTSDYSILLEEQAAREFIEWLLAGGPSSGALQAPGQAPLASHLSTAQTARLSAELHK([AEEA-AEEA-γGlu-C18 diacid])LATLPRTETGSGSP-NH2 [Compound 105]
[1]; [7]
  EC50: 113 pM
[1]; [4]
  EC50: 2.88 pM
[2]; [8]
  EC50: 0.0489 nM
[2]; [5]
  EC50: 0.0126 nM
[3]; [9]
  EC50: 12.5 pM
[3]; [6]
  EC50: 3.08 pM

## Y[Aib]EGTFTSDYSILLEEQAAREFIEWLLAGGPSK([AEEA-AEEA-γGlu-C18 diacid])GAPPPSGGGGASELSTAALGRLSAELHRLATLPRTETGSGSP-NH2 [Compound 13]
[1]; [4]
  EC50: 2.26 pM
[2]; [5]
  EC50: 0.0379 nM
[3]; [6]
  EC50: 2.4 pM

## Y[Aib]EGTFTSDYSILLEEQAAREFIEWLLAGGPSSK([AEEA-AEEA-γGlu-C18 diacid])APPPSGGGEASELSTAALGRLSAELHRLATLPRTETGSGSP-NH2 [Compound 31]
[1]; [4]
  EC50: 2.69 pM
[2]; [5]
  EC50: 0.0478 nM
[3]; [6]
  EC50: 4.73 pM

## Y[Aib]EGTFTSDYSILLEEQAAREFIEWLLAGGPSRGEASELSTAALGRLSAELHK([AEEA-AEEA-γGlu-C18 diacid])LATLPRTETGSGSP-NH2 [Compound 67]
[1]; [7]
  EC50: 190 pM
[1]; [4]
  EC50: 3.66 pM
[2]; [8]
  EC50: 0.105 nM
[2]; [5]
  EC50: 0.0154 nM
[3]; [9]
  EC50: 37 pM
[3]; [6]
  EC50: 4.28 pM

## H[Aib]HGTFTSDYSILLEEQAAREFIEWLLAGGPSSGAGQAPGQAPGASHLSTAQTARLSAELHK([AEEA-AEEA-γGlu-C20 diacid])LATLPRTETGSGSP-NH2 [Compound 104]
[1]; [7]
  EC50: 293 pM
[1]; [4]
  EC50: 1.49 pM
[2]; [8]
  EC50: 0.0191 nM
[2]; [5]
  EC50: 0.00416 nM
[3]; [9]
  EC50: 17.3 pM
[3]; [6]
  EC50: 3.57 pM

## H[Aib]HGTFTSDYSILLEEQAAREFIEWLLAGGPSSGEASHLSTAALGRLSAELHRLATLPK([AEEA-AEEA-γGlu-C18 diacid])TETGSGSP-NH2 [Compound 90]
[1]; [7]
  EC50: 183 pM
[1]; [4]
  EC50: 5.45 pM
[2]; [8]
  EC50: 0.0386 nM
[2]; [5]
  EC50: 0.00416 nM
[3]; [9]
  EC50: 32.5 pM
[3]; [6]
  EC50: 5.4 pM

## Y[Aib]EGTFTSDYSILLEEQAAREFIEWLLAGGPSK([γGlu-C20 diacid])GAPPPSGGGEASELSTAALGRLSAELHRLADLPRTETGSGSP-NH2 [Compound 41]
[1]; [10]
  EC50: 6.72 pM
[2]; [11]
  EC50: 0.0408 nM
[3]; [12]
  EC50: 5.02 pM

## Y[Aib]EGTFTSDYSILLEEQAAREFIEWLLAGGPSGGGGEASHLSTAQTQRLSAELHK([AEEA-AEEA-γGlu-C20 diacid])LATLPRTETGSGSP-NH2 [Compound 96]
[1]; [7]
  EC50: 595 pM
[1]; [4]
  EC50: 3.73 pM
[2]; [8]
  EC50: 0.162 nM
[2]; [5]
  EC50: 0.0168 nM
[3]; [9]
  EC50: 30 pM
[3]; [6]
  EC50: 3.62 pM

## Y[Aib]EGTFTSDYSILLEEQAAREFIEWLLAGGPSRGEASHLSTAQTQRLSAELHK([AEEA-AEEA-γGlu-C20 diacid])LATLPRTETGSGSP-NH2 [Compound 94]
[1]; [7]
  EC50: 377 pM
[1]; [4]
  EC50: 3.91 pM
[2]; [8]
  EC50: 0.13 nM
[2]; [5]
  EC50: 0.0161 nM
[3]; [9]
  EC50: 29.5 pM
[3]; [6]
  EC50: 2.9 pM

## Y[Aib]EGTFTSDYSILLEEQAAREFIEWLLAGGPSK([AEEA-AEEA-γGlu-C18 diacid])GEASELSTAQLGRLSAELHRLATLPRTETGSGSP-NH2 [Compound 27]
[1]; [4]
  EC50: 3.82 pM
[2]; [5]
  EC50: 0.0262 nM
[3]; [6]
  EC50: 2.11 pM
